Laboratory results as given in US20060029544A1, “Receptor-binding cyclic peptides and methods of use” (The Regents of the University of California Office of …, priority 2004, published 2006).
Where “and” joins values, the source holds several entries; their conditions need not be identical. Identical values can stand only once. One block for each compound: values may come before it.

What was measured:
VUP melanoma cell line = experiment: Adhesion assay: [51Cr]-VUP cells to laminin; format: cell-based; details: control peptide, concentration not given
Procedure: (§1) RGD peptides were plated at a maximum concentration of 200 μM and a minimum concentration of 2 nM. For each RGD peptide sequence, linear peptides (A), cyclic peptides (B), and 4-[^19F]-fluorobenzoyl cyclic peptides (C) were assayed. Each RGD peptide concentration was performed in quadruplicate and each experiment was repeated twice.
(§2) Plastic 96-well plates (Falcon 3912; Becton Dickinson) were coated with 50 μl substrate (10 μg/ml laminin or 5 μg/ml vitronectin). The plates were incubated at 37° C. in an 8% CO2 atmosphere for 1 hour. Unbound protein was flicked off and the plates were washed with phosphate buffered saline (PBS) and blocked with bovine serum albumin (0.1% w/v BSA)/PBS/0.1% sodium azide) for 1 hour. The plates were then washed with PBS, placed on a bed of ice and 25 μl of peptide was added to the wells.
(§3) Sodium [^51Cr] chromate was purchased from Amersham International, UK. The solution was made isotonic by the addition of 110 μl 10× Hanks buffered salt solution. 100 μl of this solution (3.7 MBq) was added to 5-10×10^6 cells in 500 μl of serum-containing growth medium. The suspension was incubated at 37° C. for 45 minutes with regular agitation to resuspend the cells. The cells were then washed and spun 3 times with serum-free E4 medium to remove any free [^51Cr]chromium. A trypan blue viability count was performed and the cells were diluted to the necessary volume in serum-free E4 medium (4×10^5 cells/ml).
25 μl (about 10,000 cells) were added to each quadruplicate well and the plates incubated at 37° C. in an 8% CO2 atmosphere for 1 hour. Unbound cells were flicked off and the plates were washed twice with PBS/BSA containing 1 mM CaCl2 and 0.5 mM MgCl2. The plates were dabbed dry and cut into individual wells. The radioactivity associated with each well was determined in a gamma counter (1261 Multigamma; Wallac, Sweden). Quadruplicate 25 μl samples of labeled cells were counted as 100% input values. To determine non-specific binding, the ability of cells to bind BSA-coated wells was also assessed. […]
The results were calculated as follows: [formula] […]

A375M melanoma cell line = experiment: Adhesion assay: [51Cr]-A375M cells to laminin; format: cell-based, human
Procedure: as §1, §2, §3
25 μl (about 10,000 cells) were added to each quadruplicate well and the plates incubated at 37° C. in an 8% CO2 atmosphere for 1 hour. Unbound cells were flicked off and the plates were washed twice with PBS/BSA containing 1 mM CaCl2 and 0.5 mM MgCl2. The plates were dabbed dry and cut into individual wells. The radioactivity associated with each well was determined in a gamma counter (1261 Multigamma; Wallac, Sweden). Quadruplicate 25 μl samples of labeled cells were counted as 100% input values. To determine non-specific binding, the ability of cells to bind BSA-coated wells was also assessed. Data for these wells are referred to as background.
The results were calculated as follows: [formula] [formula] NMR Spectroscopy of RGD Peptides
The A375M and VUP melanoma cell lines were used with vitronectin and laminin as substrates. Peptides were titrated in 10-fold dilutions from 200 μM to 2 nM. All data were normalized to the absence of peptide, which corresponded to 100% adhesion. All titrations were performed in quadruplicate and each experiment was repeated at least twice.

[1] = test system: A375M, a human melanoma which expresses αvβ3 integrin; experiment: In vivo biodistribution in mice bearing A375M tumors; details: mouse
Procedure: (§4) In vivo biodistribution studies were performed in mice using A375M, a human melanoma which expresses αvβ3 integrin. MF1 nu/nu mice were given subcutaneous injections of A375M cells into the left inguinal region. Once tumors reached 4-10 mm in size, mice (n=5 mice per time point) were injected with 50 kBq of [^18F]-C7 and sacrificed at 15, 30, and 60 minutes after injection. A second group of animals (n=3) was injected with 50 kBq of [^18F]-C7, sacrificed at 30minutes after injection, and imaged using an ECAT 951R whole body PET scanner.

[2] = test system: A375M, a human melanoma which expresses αvβ3 integrin; experiment: PET imaging (ECAT 951R) of mice bearing A375M tumors; format: in vivo; details: 30 minutes after injection
Procedure: as §4

α5β1 integrin = target: T1, α5β1 integrin (Homo sapiens, UniProt P05556+P08648); experiment: ELISA: soluble α5β1-hFc binding to immobilized 50 kDa fibronectin fragment in the presence of RGD peptides; details: Table 2, no unit printed (b200 gives same values in μM); read-out: Mean IC50, α5β1
T1 construct: chimeras comprising the extracellular domain of αvβ3, αvβ5, α5β1, and αIIbβ3 linked to the Fc domain of either mouse IgG; purchased Celltech plc (supplied, no catalogue number)
T1 sequence (P08648 42-995 limits assumed): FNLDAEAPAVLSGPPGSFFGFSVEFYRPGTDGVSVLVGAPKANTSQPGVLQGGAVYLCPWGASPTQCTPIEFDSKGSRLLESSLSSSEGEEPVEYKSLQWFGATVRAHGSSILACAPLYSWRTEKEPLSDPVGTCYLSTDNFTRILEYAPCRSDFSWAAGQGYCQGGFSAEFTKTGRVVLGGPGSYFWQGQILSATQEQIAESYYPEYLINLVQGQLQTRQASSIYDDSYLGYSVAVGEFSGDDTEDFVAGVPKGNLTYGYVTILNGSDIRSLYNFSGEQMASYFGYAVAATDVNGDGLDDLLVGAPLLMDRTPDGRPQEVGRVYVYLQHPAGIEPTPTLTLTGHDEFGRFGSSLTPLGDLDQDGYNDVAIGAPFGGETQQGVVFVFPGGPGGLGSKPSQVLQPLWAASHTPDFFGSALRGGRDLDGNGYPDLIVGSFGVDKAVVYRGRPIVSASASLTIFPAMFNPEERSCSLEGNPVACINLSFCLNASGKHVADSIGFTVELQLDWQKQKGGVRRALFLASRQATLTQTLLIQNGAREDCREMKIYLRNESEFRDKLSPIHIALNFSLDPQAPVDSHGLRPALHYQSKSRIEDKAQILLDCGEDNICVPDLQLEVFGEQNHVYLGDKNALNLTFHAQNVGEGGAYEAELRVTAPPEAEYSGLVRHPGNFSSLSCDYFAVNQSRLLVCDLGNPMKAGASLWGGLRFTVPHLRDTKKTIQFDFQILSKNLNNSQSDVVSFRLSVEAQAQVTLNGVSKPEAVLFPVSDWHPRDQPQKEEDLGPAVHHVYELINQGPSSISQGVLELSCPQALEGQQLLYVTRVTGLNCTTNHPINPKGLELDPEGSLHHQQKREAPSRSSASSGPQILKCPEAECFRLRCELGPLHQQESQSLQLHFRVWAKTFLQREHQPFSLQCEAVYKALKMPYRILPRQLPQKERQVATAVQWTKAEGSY
T1 sequence (P05556 21-728 limits assumed): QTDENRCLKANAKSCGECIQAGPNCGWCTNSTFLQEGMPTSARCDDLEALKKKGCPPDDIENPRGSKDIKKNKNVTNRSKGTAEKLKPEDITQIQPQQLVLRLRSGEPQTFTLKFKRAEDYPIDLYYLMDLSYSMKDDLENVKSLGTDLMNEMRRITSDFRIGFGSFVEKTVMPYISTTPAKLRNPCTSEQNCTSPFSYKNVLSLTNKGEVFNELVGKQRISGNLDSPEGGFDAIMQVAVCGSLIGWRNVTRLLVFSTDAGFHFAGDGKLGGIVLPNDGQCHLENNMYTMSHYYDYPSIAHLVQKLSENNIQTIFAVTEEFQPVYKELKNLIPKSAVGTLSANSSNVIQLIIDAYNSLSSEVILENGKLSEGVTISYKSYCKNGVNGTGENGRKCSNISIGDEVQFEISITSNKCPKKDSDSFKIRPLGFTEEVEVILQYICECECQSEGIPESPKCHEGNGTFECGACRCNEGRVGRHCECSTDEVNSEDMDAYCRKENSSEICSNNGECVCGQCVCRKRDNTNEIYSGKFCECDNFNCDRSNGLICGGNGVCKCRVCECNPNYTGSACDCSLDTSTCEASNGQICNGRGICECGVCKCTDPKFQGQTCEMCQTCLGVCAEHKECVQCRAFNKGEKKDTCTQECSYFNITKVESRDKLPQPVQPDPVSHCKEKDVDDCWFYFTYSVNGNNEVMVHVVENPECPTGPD
Text: (§5) Four different soluble integrins were supplied by Celltech plc. Soluble forms of αvβ3, αvβ5, α5β1, and αIIbβ3 integrin were generated by constructing chimeras comprising the extracellular domain of αvβ3, αvβ5, α5β1, and αIIbβ3 linked to the Fc domain of either mouse IgG (αvβ3-mFc, αvβ5-mFc, and αIIbβ3-mFc) or human IgG (α5β1-hFc) as described by Stephens et al., Cell Adhes. Commun., 7:377-390 (2000) and Coe et al., J. Biol. Chem., 276:35854-35866 (2001). Since the four soluble integrin chimeras were supplied either as purified proteins (αvβ3-mFc and α5β1-hFc) or as unpurified hybridoma supernatants (αIIbβ3-mFc and αvβ5-mFc), it was necessary to use two types of ELISAs. […] In one type of ELISA (FIGS. 2A and 2B), the immobilized component is a 50 kDa fragment of fibronectin. In the second type of ELISA (FIGS. 2C and 2D), the immobilized component is a goat anti-mFc antibody that is used to capture chimeric proteins so that the RGD binding site of the integrin is maximally exposed. Each three-sided box in FIG. 2 represents a single well of a 96-well plate, and the components are listed in the sequence of their addition to the assay. The immobilized component at the bottom of the well is bound to the well by electrostatic interactions.
To analyze the affinity and selectively of RGD peptides for αvβ3 and α5β1, 96-well ELISA plates were coated with 100 μl of a 5 μg/ml of the 50 kDa fragment of fibronectin in PBS per well and left overnight at 4° C. The plates were washed with PBS using a Denley Wellwash 4 Mk 2. Washing was repeated twice with a 400 μl wash per well. 200 μ/well of blocking buffer (i.e., to prevent non-specific binding of proteins) was then added for 1 hour followed by a repeat washing with PBS. RGD peptides were then added at a maximum concentration of 200 μM and a preliminary screen was performed at three concentrations, 200,20, and 2 μM. 100 μl of an RGD peptide was added to each well and each assay was performed in triplicate. Purified soluble αvβ3-mFc or purified α5β1-hFc was diluted to 2 μg/ml and 15 ng/ml, respectively, in conjugate buffer and 100 μl was added to each well. The plates were incubated for 2 hours with shaking using a Luckham R100 Rotatest at approximately 150 rpm. After incubation, the plates were washed with PBS as previously described and a labeled antibody was added. For the αvβ3 assay, a horseradish peroxidase (HRP)-labeled F(ab′)2 fragment of goat anti-mouse IgG Fc was diluted 1:2000 in conjugate buffer and 100 μl was added to each well. For the α5β1 assay, an HRP-labeled F(ab′)2 fragment of goat anti-human IgG Fc was diluted 1:2000 in conjugate buffer and 100 μl was added to each well. Plates were incubated for 30 minutes with shaking followed by 2 washes with PBS. 100 μl of TMB substrate was added to each well and plates were shaken during a 10 minute color development. Plates were read using a plate spectrophotometer at 630 nm.
(§6) Two negative and two positive controls were used in both types of ELISAs. For example, the negative controls were wells that contained 50 μl of an active control peptide, integrin, and biotinylated ligand or 50 μl of the active control peptide and 50 μl of buffer. These negative control wells typically develop little to no color. […] These wells typically develop the maximum amount of color.
(§7) FIGS. 3-6 illustrate the percent binding of the vitronectin, fibronectin, or fibrinogen ligand to αvβ5, α5β1, αIIbβ3, or αvβ3 integrin in the presence of RGD peptides (i.e., linear (A), cyclic (B), or 4-[^19F]-fluorobenzoyl cyclic (C)) at different concentrations, with 100% maximum signal being the signal obtained in the absence of the peptide.

αIIbβ3 integrin = target: T2, αIIbβ3 integrin (Homo sapiens, UniProt P05106+P08514); experiment: ELISA: biotinylated fibrinogen binding to captured soluble αIIbβ3-mFc in the presence of RGD peptides
T2 construct: chimeras comprising the extracellular domain of αvβ3, αvβ5, α5β1, and αIIbβ3 linked to the Fc domain of either mouse IgG; purchased Celltech plc (supplied, no catalogue number); host or cells: unpurified hybridoma / tissue culture supernatant from secreting cells
T2 sequence (P08514 32-993 limits assumed): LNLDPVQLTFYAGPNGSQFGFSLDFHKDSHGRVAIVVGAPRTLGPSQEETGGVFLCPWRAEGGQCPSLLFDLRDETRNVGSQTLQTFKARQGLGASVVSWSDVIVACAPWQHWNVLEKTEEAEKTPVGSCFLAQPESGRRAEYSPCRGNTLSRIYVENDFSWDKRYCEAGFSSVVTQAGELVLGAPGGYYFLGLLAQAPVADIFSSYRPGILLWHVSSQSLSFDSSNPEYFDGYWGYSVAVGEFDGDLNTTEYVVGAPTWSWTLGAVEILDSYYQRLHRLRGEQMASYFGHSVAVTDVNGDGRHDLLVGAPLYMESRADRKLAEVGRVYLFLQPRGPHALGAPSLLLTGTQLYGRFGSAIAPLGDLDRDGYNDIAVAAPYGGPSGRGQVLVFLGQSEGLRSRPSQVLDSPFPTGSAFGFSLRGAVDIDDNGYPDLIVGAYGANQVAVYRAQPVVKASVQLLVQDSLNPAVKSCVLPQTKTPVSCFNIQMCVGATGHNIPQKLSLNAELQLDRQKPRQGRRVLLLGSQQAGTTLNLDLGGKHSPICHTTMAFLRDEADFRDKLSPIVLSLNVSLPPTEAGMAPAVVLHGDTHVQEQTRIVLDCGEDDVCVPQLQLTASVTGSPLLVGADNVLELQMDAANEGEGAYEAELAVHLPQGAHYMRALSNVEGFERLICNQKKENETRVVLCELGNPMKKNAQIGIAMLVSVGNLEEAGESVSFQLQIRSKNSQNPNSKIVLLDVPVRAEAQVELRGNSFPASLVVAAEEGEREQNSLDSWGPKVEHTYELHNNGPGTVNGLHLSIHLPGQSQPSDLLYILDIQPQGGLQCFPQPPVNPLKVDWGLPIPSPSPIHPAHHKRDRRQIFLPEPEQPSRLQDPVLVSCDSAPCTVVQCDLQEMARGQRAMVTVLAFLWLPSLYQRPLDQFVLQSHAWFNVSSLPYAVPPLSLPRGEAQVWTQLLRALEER
T2 sequence (P05106 27-718 limits assumed): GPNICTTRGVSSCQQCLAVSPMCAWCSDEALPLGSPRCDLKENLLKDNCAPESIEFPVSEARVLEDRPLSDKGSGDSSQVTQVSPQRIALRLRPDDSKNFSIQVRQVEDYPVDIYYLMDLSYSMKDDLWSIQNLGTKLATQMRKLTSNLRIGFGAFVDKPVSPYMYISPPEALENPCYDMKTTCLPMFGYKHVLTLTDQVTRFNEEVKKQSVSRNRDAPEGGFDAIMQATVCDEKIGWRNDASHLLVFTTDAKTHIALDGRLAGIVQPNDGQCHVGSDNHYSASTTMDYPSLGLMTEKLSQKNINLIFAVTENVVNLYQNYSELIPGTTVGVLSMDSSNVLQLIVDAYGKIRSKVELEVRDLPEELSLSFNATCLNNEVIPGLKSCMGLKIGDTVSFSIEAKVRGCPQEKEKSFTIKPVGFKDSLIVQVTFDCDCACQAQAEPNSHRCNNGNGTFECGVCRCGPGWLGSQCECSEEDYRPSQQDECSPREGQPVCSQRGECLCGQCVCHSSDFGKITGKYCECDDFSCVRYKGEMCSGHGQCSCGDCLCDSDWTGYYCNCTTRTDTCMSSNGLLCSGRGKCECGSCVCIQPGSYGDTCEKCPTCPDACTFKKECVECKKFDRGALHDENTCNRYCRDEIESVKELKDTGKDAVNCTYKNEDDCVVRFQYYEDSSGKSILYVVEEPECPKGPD
Text: as §5
The plates were washed with PBS using a Denley Wellwash 4 Mk 2. Washing was repeated twice with a 400 μl wash per well. 200 μl/well of blocking buffer was then added for 1 hour followed by a repeat washing with PBS. 100 μl of tissue culture supernatant from cells secreting soluble αIIbβ3-mFc or αvβ5-mFc, diluted 1:2 in conjugate buffer, was added to each well. […] After incubation, the plates were washed with PBS as described above. 100 μl of neutravidin-peroxidase was added to each well and the plates were incubated for 30 minutes with shaking, followed by two washes with PBS. 100 μl of TMB substrate was added to each well and the plates were shaken during color development. Plates were read using a plate spectrophotometer at 630 nm.
(§8) Two negative and two positive controls were used in both types of ELISAs.
as §7

αvβ5 integrin = target: T3, αvβ5 integrin (Homo sapiens, UniProt P06756+P18084); experiment: ELISA: biotinylated vitronectin binding to captured soluble αvβ5-mFc in the presence of RGD peptides; details: Table 2, no unit printed (b200 gives same values in μM); read-out: Mean IC50, αvβ5
T3 construct: chimeras comprising the extracellular domain of αvβ3, αvβ5, α5β1, and αIIbβ3 linked to the Fc domain of either mouse IgG; purchased Celltech plc (supplied, no catalogue number); host or cells: unpurified hybridoma / tissue culture supernatant from secreting cells
T3 sequence (P06756 31-992 limits assumed): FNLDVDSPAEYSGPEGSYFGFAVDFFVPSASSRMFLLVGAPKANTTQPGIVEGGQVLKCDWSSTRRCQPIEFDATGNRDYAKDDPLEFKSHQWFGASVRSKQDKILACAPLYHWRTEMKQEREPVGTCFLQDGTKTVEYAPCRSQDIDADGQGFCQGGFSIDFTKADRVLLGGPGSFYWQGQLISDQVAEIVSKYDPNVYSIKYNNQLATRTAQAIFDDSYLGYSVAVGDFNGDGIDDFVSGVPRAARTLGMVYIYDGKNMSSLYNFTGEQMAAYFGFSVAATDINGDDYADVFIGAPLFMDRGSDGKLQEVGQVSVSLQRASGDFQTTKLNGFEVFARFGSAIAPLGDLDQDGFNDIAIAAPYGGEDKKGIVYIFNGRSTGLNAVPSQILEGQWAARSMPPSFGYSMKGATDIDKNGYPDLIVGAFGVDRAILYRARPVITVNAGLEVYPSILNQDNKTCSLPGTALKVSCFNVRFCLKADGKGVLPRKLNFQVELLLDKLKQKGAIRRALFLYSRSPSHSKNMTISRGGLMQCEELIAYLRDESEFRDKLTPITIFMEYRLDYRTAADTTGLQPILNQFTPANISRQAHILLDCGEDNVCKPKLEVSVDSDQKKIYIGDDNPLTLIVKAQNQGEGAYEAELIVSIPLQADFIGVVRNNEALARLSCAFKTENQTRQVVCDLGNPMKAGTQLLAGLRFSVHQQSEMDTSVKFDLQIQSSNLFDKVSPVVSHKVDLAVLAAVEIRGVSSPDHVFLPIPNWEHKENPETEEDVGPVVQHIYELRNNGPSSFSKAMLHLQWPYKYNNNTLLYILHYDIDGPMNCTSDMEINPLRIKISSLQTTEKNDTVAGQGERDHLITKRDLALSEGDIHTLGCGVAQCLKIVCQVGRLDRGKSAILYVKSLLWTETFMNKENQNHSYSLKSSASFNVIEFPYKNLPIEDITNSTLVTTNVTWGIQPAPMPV
T3 sequence (P18084 24-719 limits assumed): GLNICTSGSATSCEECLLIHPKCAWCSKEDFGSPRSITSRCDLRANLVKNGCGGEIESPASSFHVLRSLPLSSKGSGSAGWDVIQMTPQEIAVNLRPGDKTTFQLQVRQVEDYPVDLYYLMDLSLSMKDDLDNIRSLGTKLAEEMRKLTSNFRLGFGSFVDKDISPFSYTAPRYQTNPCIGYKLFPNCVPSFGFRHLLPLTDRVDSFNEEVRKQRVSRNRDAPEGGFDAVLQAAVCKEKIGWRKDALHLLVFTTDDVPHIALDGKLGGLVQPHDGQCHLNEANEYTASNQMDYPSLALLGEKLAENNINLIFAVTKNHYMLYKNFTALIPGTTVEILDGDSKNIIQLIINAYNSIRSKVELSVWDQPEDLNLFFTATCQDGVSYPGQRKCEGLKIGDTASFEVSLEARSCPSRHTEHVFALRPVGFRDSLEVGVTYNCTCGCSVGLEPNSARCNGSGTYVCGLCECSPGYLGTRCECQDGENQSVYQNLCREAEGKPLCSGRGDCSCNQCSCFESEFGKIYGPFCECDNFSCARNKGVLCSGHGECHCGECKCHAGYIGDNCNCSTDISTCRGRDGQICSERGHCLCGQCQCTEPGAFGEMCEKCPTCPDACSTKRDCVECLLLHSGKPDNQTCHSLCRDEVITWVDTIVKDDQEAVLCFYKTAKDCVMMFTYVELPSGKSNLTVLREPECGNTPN
Text: as §5
To analyze the affinity and selectively of RGD peptides for αIIbβ3 and αvβ5, 96-well ELISA plates were coated with anti-murine Fc antibody at 5 μg/ml in PBS, 100 μl per well and left overnight at 4° C. The plates were washed with PBS using a Denley Wellwash 4 Mk 2. Washing was repeated twice with a 400 μl wash per well. 200 μl/well of blocking buffer was then added for 1 hour followed by a repeat washing with PBS. 100 μl of tissue culture supernatant from cells secreting soluble αIIbβ3-mFc or αvβ5-mFc, diluted 1:2 in conjugate buffer, was added to each well. Plates were incubated with shaking for 1 hour followed by two washes with PBS. 100 μl of an RGD peptide (at concentrations of 200, 20, and 2 μM), followed by either 100 μl of biotinylated fibrinogen (at 1 μg/ml in conjugate buffer) or 100 μl of biotinylated vitronectin (at 2 μg/ml in conjugate buffer) were added to each well and incubated for 2 hours with shaking. After incubation, the plates were washed with PBS as described above. 100 μl of neutravidin-peroxidase was added to each well and the plates were incubated for 30 minutes with shaking, followed by two washes with PBS. 100 μl of TMB substrate was added to each well and the plates were shaken during color development. Plates were read using a plate spectrophotometer at 630 nm.
as §6, §7

αvβ3 integrin = target: T4, αvβ3 integrin (Homo sapiens, UniProt P05106+P06756); experiment: ELISA: soluble αvβ3-mFc binding to immobilized 50 kDa fibronectin fragment in the presence of RGD peptides; details: Table 2, no unit printed (b200 gives same values in μM)
T4 construct: chimeras comprising the extracellular domain of αvβ3, αvβ5, α5β1, and αIIbβ3 linked to the Fc domain of either mouse IgG; purchased Celltech plc (supplied, no catalogue number)
T4 sequence (P06756 31-992 limits assumed): as the sequence (P06756 31-992 limits assumed) above
T4 sequence (P05106 27-718 limits assumed): as the sequence (P05106 27-718 limits assumed) above
Text: as §5
The plates were washed with PBS using a Denley Wellwash 4 Mk 2. Washing was repeated twice with a 400 μl wash per well. […] Plates were read using a plate spectrophotometer at 630 nm.
as §8, §7

Compound: GRGDSP [reference compound]
adhesion of [51Cr]-VUP cells to laminin, normalized to absence of peptide (100%) (VUP melanoma cell line): 49.29%±2.74% and 43.05%±7.66%
adhesion of [51Cr]-A375M cells to laminin, normalized to absence of peptide (100%) (A375M melanoma cell line; 200 μM peptide): 13.51%±1.25%
adhesion of [51Cr]-A375M cells to laminin, normalized to absence of peptide (100%) (A375M melanoma cell line; control peptide, concentration not given): 62.05%±1.88%

tumor to organ ratio, heart [1]: 5.83
tumor to organ ratio, lung [1]: 2.33
tumor to organ ratio, muscle [1]: 11.67
tumor to organ ratio, skin [1]: 1.6
Compound: 4-[^18F]-fluorobenzoyl cyclic (RGDY(OMe)K) [[^18F]-C7]
uptake in PET images [2]: distinct areas of [^18F]-C7 uptake in the lower region of the mouse

Compound: N=C(N)NCCC[C@@H]1NC(=O)[C@H](CCCCNC(=O)c2ccc(F)cc2)NC(=O)[C@@H](Cc2ccccc2)NC(=O)[C@H](CC(=O)O)NC(=O)CNC1=O [C10]
IC50 (α5β1 integrin): 1.37 µM
fibrinogen binding to αIIbβ3 (αIIbβ3 integrin; 200 nM peptide): 42.1%
fibrinogen binding to αIIbβ3, % of the maximum signal (αIIbβ3 integrin; 2 μM peptide): 21.9%
IC50 (αIIbβ3 integrin; Table 2, no unit printed (b200 gives same values in μM)): 1.23 µM
IC50 (αvβ5 integrin): 6.01 µM
IC50 (αvβ3 integrin): 0.018 µM
